Article PMC10410819, “Potential antihypertensive activity of novel peptides from green basil leaves” (BMC Complementary Medicine and Therapies, 2023)
One block for each molecule: values may come before it. Residues, ends and D or L forms follow the SMILES beside them. No end group written: not given here.

Columns and labels:
[1] = test system: L-NAME-treated male Wistar rats; experiment: Body weight of L-NAME-treated rats; assay type: in vivo, rat; details: vs L-NAME-treated rats; 3 weeks treatment
Experimental: (§1) After 1 week of acclimation, 25 male Wistar rats were separated randomly into two groups of control rat (NC; n = 5) with distilled water and L-NAME-treated rat (n = 20). At this step, distilled water was orally gavaged to NC rat at 1 mL/100 g BW. L-NAME at a final concentration of 40 mg/kg BW in 1 mL distilled water was orally gavage to induce hypertension in rat at a dose of 40 mg/kg BW for 3 weeks. Thereafter, L-NAME treated rats were randomly classified into the following four groups: L-NAME untreated rat (HT; n = 5); L-NAME + lisinopril rat (HTD; n = 5); L-NAME + peptide 1 at 30 mg/kg rat (HTP1; n = 5); and L-NAME + peptide 2 at 30 mg/kg rat (HTP2; n = 5); for the remaining 3 weeks. NC (n = 5) was still orally gavaged with distilled water. The peptides were diluted in distilled water to obtain a final concentration of 30 mg/1 mL and immediately gavaged to rat at a dose of 30 mg/kg BW/day). Lisinopril was diluted in distilled water to obtain a final concentration of 10 mg/1 mL and immediately orally gavaged to rat at a dose of 10 mg/kg BW/day. At the end of the experiment, each rat was fasted for approximately 12–16 h and euthanized with CO2 inhalation. […] The separated serum was collected and preserved at − 80 °C until further analysis. Then, the liver, heart, spleen, and kidneys were collected, trimmed, washed with normal saline, wiped with filter paper, and weighed.

[2] = test system: L-NAME-treated male Wistar rats; experiment: Serum lipid profile, glucose, kidney and liver function and ORAC in L-NAME-treated rats; assay type: in vivo, rat; details: mean, 3 weeks oral gavage, lisinopril 10 mg/kg BW/day, peptides 30 mg/kg BW/day, n = 5
Experimental: as §1
One thousand microlite of serum was used for measuring the lipid profiles, including total cholesterol, triglyceride (TG), low-density lipoprotein (LDL)-cholesterol (C), high-density lipoprotein (HDL)-C, glucose levels, kidney (blood urea nitrogen and creatinine concentrations) and liver function [alanine aminotransaminase (ALT), aspartate transaminase (AST), and alkaline phosphatase ([…])] parameters using the Cobas 6800/8800 systems (Roche Group, Switzerland). ORAC in rat serum was measured with a fluorescent microplate reader at Ex/Em = 480/520 nm, as previously mentioned.

[3] = test system: L-NAME-treated male Wistar rats; experiment: Serum angiotensin II peptide (EIA) in L-NAME-treated rats; assay type: in vivo, rat; details: median (interquartile range); 3 weeks oral gavage; lisinopril 10 mg/kg, peptides 30 mg/kg BW/day
Experimental: After 1 week of acclimation, 25 male Wistar rats were separated randomly into two groups of control rat (NC; n = 5) with distilled water and L-NAME-treated rat (n = 20). At this step, distilled water was orally gavaged to NC rat at 1 mL/100 g BW. L-NAME at a final concentration of 40 mg/kg BW in 1 mL distilled water was orally gavage to induce hypertension in rat at a dose of 40 mg/kg BW for 3 weeks. Thereafter, L-NAME treated rats were randomly classified into the following four groups: L-NAME untreated rat (HT; n = 5); L-NAME + lisinopril rat (HTD; n = 5); L-NAME + peptide 1 at 30 mg/kg rat (HTP1; n = 5); and L-NAME + peptide 2 at 30 mg/kg rat (HTP2; n = 5); for the remaining 3 weeks. NC (n = 5) was still orally gavaged with distilled water. The peptides were diluted in distilled water to obtain a final concentration of 30 mg/1 mL and immediately gavaged to rat at a dose of 30 mg/kg BW/day). […]
(§2) The levels of nitrite and nitrate, which are metabolites of nitric oxide (NO), were measured using 50 µl of rat serum utilizing the calorimetric method (Nitrite/nitrate Kit, Sigma-Aldrich, 2 Science Park Dr, SG), according to company protocol. Angiotensin II peptide levels were quantified by using EIA kits (Angiotensin II EIA, Sigma-Aldrich, MO, USA), as per the manufacturer’s instructions).

[4] = test system: L-NAME-treated male Wistar rats; experiment: Serum nitrite/nitrate in L-NAME-treated rats; assay type: in vivo, rat; details: mean ± standard error; 3 weeks oral gavage; lisinopril 10 mg/kg, peptide 30 mg/kg BW/day
Experimental: as §1, §2

[5] = test system: L-NAME-treated male Wistar rats; experiment: Organ weights of L-NAME-treated rats; assay type: in vivo, rat; details: vs NC group; after 3 weeks treatment
Experimental: as §1

[6] = test system: L-NAME-treated male Wistar rats; experiment: Platelet count and white blood cell levels of L-NAME-treated rats; assay type: in vivo, rat; details: effect of treatment in the L-NAME treated group; 3 weeks
Experimental: as §1

ACE = biological target: T1, ACE (Homo sapiens, UniProt P12821); experiment: ACE inhibitory activity assay kit; assay type: biochemical; details: synthetic peptides; captopril positive control; read-out: IC50 ACE inhibition
T1 construct: purchased Dojindo Molecular Technology Inc., Kumamoto, Japan
Experimental: ACE inhibitory activity assay kit (Dojindo Molecular Technology Inc., Kumamoto, Japan) was used for the measurement of ACE inhibition in proteins derived from basil leaves before and after digestion according to the company manual. Briefly, 10 µl of each sample, substrate buffer, and enzyme mixture were mixed and incubated in 96-well plate at 37 °C for 1 h before measuring ACE inhibition at 450 nm of absorption (A). The ACE inhibitory activity was calculated and calculated as follows: inhibitory activity (%) = [(Awithout sample − Awith sample)/(Awithout sample − Ablank)] × 100.

[7] = biological target: Angiotensin-converting enzyme (UniProt P12821)
Angiotensin-converting enzyme, sequence (P12821 30-1256): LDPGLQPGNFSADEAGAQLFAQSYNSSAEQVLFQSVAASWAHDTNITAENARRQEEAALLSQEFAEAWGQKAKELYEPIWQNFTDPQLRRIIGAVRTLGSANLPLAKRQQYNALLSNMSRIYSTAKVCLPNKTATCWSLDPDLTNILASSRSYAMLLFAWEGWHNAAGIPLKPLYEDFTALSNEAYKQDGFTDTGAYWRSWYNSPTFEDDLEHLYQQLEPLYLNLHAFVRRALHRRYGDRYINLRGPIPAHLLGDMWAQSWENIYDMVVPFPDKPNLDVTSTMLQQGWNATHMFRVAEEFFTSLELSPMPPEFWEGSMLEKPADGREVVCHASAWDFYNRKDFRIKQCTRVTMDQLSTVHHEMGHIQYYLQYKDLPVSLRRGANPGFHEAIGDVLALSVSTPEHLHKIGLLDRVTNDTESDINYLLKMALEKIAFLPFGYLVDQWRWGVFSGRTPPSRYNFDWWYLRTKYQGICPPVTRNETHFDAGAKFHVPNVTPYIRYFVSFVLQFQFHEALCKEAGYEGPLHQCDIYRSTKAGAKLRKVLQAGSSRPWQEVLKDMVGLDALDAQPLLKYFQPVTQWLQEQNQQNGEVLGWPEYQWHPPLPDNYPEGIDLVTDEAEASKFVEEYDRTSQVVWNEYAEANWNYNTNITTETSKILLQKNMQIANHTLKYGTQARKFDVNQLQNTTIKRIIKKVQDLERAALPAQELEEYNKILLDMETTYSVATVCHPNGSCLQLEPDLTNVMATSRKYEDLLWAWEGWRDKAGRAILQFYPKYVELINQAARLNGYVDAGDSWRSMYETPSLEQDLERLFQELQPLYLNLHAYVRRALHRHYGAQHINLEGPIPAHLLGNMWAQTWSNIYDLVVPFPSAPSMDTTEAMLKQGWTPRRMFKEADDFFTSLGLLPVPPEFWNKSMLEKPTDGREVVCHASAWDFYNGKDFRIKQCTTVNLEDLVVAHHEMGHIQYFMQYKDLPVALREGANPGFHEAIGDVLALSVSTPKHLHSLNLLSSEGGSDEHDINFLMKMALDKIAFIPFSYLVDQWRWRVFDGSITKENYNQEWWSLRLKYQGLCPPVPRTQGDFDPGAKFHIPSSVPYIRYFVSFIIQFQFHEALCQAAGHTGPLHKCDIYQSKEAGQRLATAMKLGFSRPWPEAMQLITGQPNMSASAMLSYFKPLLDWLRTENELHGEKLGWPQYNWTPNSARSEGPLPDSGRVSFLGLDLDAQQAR

T1 sequence (P12821 30-1306, species assumed): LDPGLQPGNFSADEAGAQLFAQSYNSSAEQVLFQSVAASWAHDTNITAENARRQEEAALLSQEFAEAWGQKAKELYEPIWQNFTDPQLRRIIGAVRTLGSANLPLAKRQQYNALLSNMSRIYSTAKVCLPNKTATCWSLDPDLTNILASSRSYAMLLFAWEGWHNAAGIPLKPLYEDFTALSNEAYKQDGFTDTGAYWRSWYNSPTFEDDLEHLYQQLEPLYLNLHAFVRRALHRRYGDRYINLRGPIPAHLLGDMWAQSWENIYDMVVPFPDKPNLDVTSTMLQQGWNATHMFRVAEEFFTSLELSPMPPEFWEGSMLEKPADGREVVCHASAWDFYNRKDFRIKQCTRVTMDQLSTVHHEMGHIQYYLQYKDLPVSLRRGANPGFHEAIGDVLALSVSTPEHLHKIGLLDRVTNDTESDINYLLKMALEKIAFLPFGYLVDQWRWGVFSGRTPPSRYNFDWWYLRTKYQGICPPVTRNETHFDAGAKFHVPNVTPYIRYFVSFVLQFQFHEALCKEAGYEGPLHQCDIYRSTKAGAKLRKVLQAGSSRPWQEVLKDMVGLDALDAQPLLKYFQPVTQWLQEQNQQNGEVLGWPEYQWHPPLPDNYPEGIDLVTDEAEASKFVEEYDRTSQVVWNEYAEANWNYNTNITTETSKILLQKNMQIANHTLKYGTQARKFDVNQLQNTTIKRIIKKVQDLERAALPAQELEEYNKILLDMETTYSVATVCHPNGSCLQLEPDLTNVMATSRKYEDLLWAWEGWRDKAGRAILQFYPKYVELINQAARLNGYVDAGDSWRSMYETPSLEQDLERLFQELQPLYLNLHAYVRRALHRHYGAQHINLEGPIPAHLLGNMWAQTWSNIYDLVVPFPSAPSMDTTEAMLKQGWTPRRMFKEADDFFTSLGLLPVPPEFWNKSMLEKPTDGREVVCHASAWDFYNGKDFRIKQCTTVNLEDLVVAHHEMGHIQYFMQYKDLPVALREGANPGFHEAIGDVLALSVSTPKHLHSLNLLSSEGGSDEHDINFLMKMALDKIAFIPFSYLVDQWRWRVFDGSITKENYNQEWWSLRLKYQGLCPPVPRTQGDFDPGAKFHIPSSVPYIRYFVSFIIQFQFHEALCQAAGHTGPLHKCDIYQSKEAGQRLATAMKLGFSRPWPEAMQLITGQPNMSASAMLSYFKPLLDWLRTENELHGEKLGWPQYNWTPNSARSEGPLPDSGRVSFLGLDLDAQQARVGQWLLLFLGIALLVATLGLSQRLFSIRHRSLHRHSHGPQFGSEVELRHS

Molecule: NCCCC[C@H](N[C@@H](CCc1ccccc1)C(=O)O)C(=O)N1CCC[C@H]1C(=O)O [Lisinopril]
effect on rat BWs [1]: not significantly affected
ORAC ([2]; rat serum): 0.19 µmol TE/dl
Cho/HDL ([2]; serum ratio): 2.69
LDL/HDL ([2]; serum ratio): 0.22
ALP ([2]; serum): 129.75 U/L
ALT ([2]; serum): 41.50 U/L
AST ([2]; serum): 67.75 U/L
BUN ([2]; serum): 19.83 mg/dL
Chol ([2]; serum): 86.25 mg/dL
Glucose ([2]; serum): 263.00 mg/dL
HDL ([2]; serum): 32.00 mg/dL
LDL ([2]; serum): 7.00 mg/dL
Tri ([2]; serum): 179.25 mg/dL
VLDL ([2]; serum): 35.75 mg/dL
serum concentration of AGE II [3]: 5.19 (4.82) pg/mL
serum concentration of nitrate [4]: 15.05 ± 1.95 ng/µL
serum concentration of nitrite [4]: 16.17 ± 2.99 ng/µL
serum concentration of total nitrate and nitrite (NOx) [4]: 31.22 ± 4.94 ng/µL
weight of the livers [5]: significantly lower
platelet count and white blood cell levels [6]: did not affect

Molecule: N[C@@H](Cc1ccc(O)cc1)C(=O)N[C@@H](CO)C(=O)N[C@@H](Cc1ccccc1)C(=O)O [Tyr-Ser-Phe] (H-Tyr-Ser-Phe-OH; N-terminus and C-terminus assumed)
IC50 (ACE): 44.2 µM

ALP ([2]; serum): 135.00 U/L
BUN ([2]; serum): 19.70 mg/dL
IC50 (ACE): 4.75 µM
weight of the livers [5]: significantly lower
Molecule: DLSSAP [Asp-Leu-Ser-Ser-Ala-Pro]
ALT ([2]; serum): 31.50 U/L
AST ([2]; serum): 67.00 U/L

Molecule: DSVSASP [Asp-Ser-Val-Ser-Ala-Ser-Pro]
ALP ([2]; serum): 159.00 U/L
ALT ([2]; serum): 38.50 U/L
AST ([2]; serum): 74.00 U/L
BUN ([2]; serum): 20.33 mg/dL
IC50 (ACE): 117 µM
weight of the livers [5]: significantly lower

IC50 (ACE): 87.2 µM
Molecule: EGSGKGVR [Glu-Gly-Ser-Gly-Lys-Gly-Val-Arg]

IC50 (ACE): 103 µM
Molecule: HCGDGDAPY [His-Cys-Gly-Asp-Gly-Asp-Ala-Pro-Tyr]

IC50 (ACE): 10 µM
Molecule: HVLSA [His-Val-Leu-Ser-Ala]

IC50 (ACE): 121 µM
Molecule: LDSKHEAP [Leu-Asp-Ser-Lys-His-Glu-Ala-Pro]

IC50 (ACE): 119 µM
Molecule: PTTKTNVPPHF [Pro-Thr-Thr-Lys-Thr-Asn-Val-Pro-Pro-His-Phe]

IC50 (µM) ACE inhibition (ACE inhibitory activity assay kit, absorbance at 450 nM) [7]: 44.2 µM
Molecule: Tyr-Ser-Phe (peptide)

IC50 (µM) ACE inhibition (ACE inhibitory activity assay kit, absorbance at 450 nM) [7]: 117 µM
B1: Asp-Ser-Val-Ser-Ala-Ser-Pro (peptide)
peptide: DSVSASP

IC50 (µM) ACE inhibition (ACE inhibitory activity assay kit, absorbance at 450 nM) [7]: 103 µM
B2: His-Cys-Gly-Asp-Gly-Asp-Ala-Pro-Tyr (peptide)
peptide: HCGDGDAPY

IC50 (µM) ACE inhibition (ACE inhibitory activity assay kit, absorbance at 450 nM) [7]: 121 µM
B3: Leu-Asp-Ser-Lys-His-Glu-Ala-Pro (peptide)
peptide: LDSKHEAP

IC50 (µM) ACE inhibition (ACE inhibitory activity assay kit, absorbance at 450 nM) [7]: 4.75 µM
B4: Asp-Leu-Ser-Ser-Ala-Pro (peptide)
peptide: DLSSAP

IC50 (µM) ACE inhibition (ACE inhibitory activity assay kit, absorbance at 450 nM) [7]: 10 µM
B5: His-Val-Leu-Ser-Ala (peptide)
peptide: HVLSA

IC50 (µM) ACE inhibition (ACE inhibitory activity assay kit, absorbance at 450 nM) [7]: 119 µM
B6: Pro-Thr-Thr-Lys-Thr-Asn-Val-Pro-Pro-His-Phe (peptide)
peptide: PTTKTNVPPHF

IC50 (µM) ACE inhibition (ACE inhibitory activity assay kit, absorbance at 450 nM) [7]: 87.2 µM
B7: Glu-Gly-Ser-Gly-Lys-Gly-Val-Arg (peptide)
peptide: EGSGKGVR
